Assay results taken from ChEMBL document CHEMBL1201862, “PubChem BioAssay data set” (2004).
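Briefly, cells in 96-well plates were exposed to five compound concentrations for 48 h, and endpoints were estimated by linear interpolation. GI50 is the concentration that inhibits growth by half.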 Active and inactive are the calls of the source. No stated cut-off is given here; in the data, active = GI50 up to about 1.1 µM and inactive = higher.

Assays:
Assay in all cases: DTP human tumour cell line panel, 48 h
SF-268 = tested on: SF-268
HOP-62 = tested on: HOP-62
HT-29 = tested on: HT-29
EKVX = tested on: EKVX
NCI-H23 = tested on: NCI-H23
CCRF-CEM = tested on: CCRF-CEM
SK-MEL-2 = tested on: SK-MEL-2
SW-620 = tested on: SW-620
MDA-MB-231 = tested on: MDA-MB-231
UACC-62 = tested on: UACC-62
HOP-92 = tested on: HOP-92
K562 = tested on: K562
MDA-MB-435 = tested on: MDA-MB-435
SK-MEL-5 = tested on: SK-MEL-5
HCT-15 = tested on: HCT-15
SN12C = tested on: SN12C
SF-539 = tested on: SF-539
LOX IMVI = tested on: LOX IMVI
PC-3 = tested on: PC-3
RXF 393 = tested on: RXF 393

Structure (SMILES) | GI50 (SF-268) | GI50 (HOP-62) | GI50 (HT-29) | GI50 (EKVX) | GI50 (NCI-H23) | GI50 (CCRF-CEM) | GI50 (SK-MEL-2) | GI50 (SW-620) | GI50 (MDA-MB-231) | GI50 (UACC-62) | GI50 (HOP-92) | GI50 (K562) | GI50 (MDA-MB-435) | GI50 (SK-MEL-5) | GI50 (HCT-15) | GI50 (SN12C) | GI50 (SF-539) | GI50 (LOX IMVI) | GI50 (PC-3) | GI50 (RXF 393)
O=C1OC(=O)C(=C\c2ccc3c(c2)OCO3)/C1=C/c1ccc2c(c1)OCO2 | > 100 µM (inactive) | > 100 µM (inactive) | > 100 µM (inactive) | > 100 µM (inactive) | > 80.9 µM (inactive) | 25.9 µM (inactive) | > 100 µM (inactive) | > 100 µM (inactive) | > 100 µM (inactive) | > 72.1 µM (inactive) | > 100 µM (inactive) | > 79.8 µM (inactive) | > 100 µM (inactive) | > 100 µM (inactive) | > 100 µM | > 100 µM (inactive) | > 100 µM (inactive) | > 100 µM (inactive) | > 100 µM (inactive) | > 89.1 µM (inactive)
c1ccc2c(c1)c1c3c(c4c(n32)=NCCN4)CCC1 | 31.6 µM (inactive) | 36.1 µM (inactive) | 20.8 µM (inactive) | 20.9 µM (inactive) | 31.6 µM (inactive) | 53.1 µM (inactive) | 23.3 µM (inactive) | 28.5 µM (inactive) | 24.2 µM (inactive) | 30.1 µM (inactive) | 25.6 µM (inactive) | 27.6 µM (inactive) | 29.7 µM (inactive) | 32.4 µM (inactive) | 15.2 µM | 18.5 µM (inactive) | 46.1 µM (inactive) | 21.1 µM (inactive) | 26.6 µM (inactive) | 17.9 µM (inactive)
CCCc1[nH]nc(C(N)=O)c1/N=N/N(C)C | 36.9 µM (inactive) | 58.7 µM (inactive) | 86.3 µM (inactive) | 26.3 µM (inactive) | 75.3 µM (inactive) | 27 µM (inactive) | > 100 µM (inactive) | 63.7 µM (inactive) | > 100 µM (inactive) | 36.9 µM (inactive) | 33.3 µM (inactive) | 2.56 µM (inactive) | > 100 µM (inactive) | 50.1 µM (inactive) | 50.4 µM | 48.3 µM (inactive) | 48.4 µM (inactive) | 47 µM (inactive) | > 100 µM (inactive) | 41.5 µM (inactive)
Cc1cn(C2CCN(CC3COC(C)(C)O3)O2)c(=O)[nH]c1=O (stereo not given) | > 100 µM (inactive) | > 100 µM (inactive) | > 100 µM (inactive) | > 100 µM (inactive) | > 100 µM (inactive) | > 100 µM (inactive) | > 100 µM (inactive) | > 100 µM (inactive) | > 100 µM (inactive) | > 100 µM (inactive) | > 100 µM (inactive) | > 100 µM (inactive) | > 100 µM (inactive) | > 100 µM (inactive) | > 100 µM | > 100 µM (inactive) | > 100 µM (inactive) | > 100 µM (inactive) | > 100 µM (inactive) | > 100 µM (inactive)
COc1ccc(C[C@H]2NC[C@H](OC(C)=O)[C@H]2OC(C)=O)cc1 | 0.0614 µM (active) | 0.195 µM (active) | 0.183 µM (active) | 0.136 µM (active) | 0.179 µM (active) | 0.126 µM (active) | 0.184 µM (active) | 0.186 µM (active) | 0.308 µM (active) | 0.288 µM (active) | 0.0417 µM (active) | 0.221 µM (active) | 0.164 µM (active) | 0.0665 µM (active) | 0.144 µM | 0.124 µM (active) | 0.441 µM (active) | 0.067 µM (active) | 0.21 µM (active) | 0.144 µM (active)
COc1ccc(NC2C(=O)C3(C)CCC2C3(C)C)cc1 (stereo not given) | > 100 µM (inactive) | > 100 µM (inactive) | 40.4 µM (inactive) | > 100 µM (inactive) | > 100 µM (inactive) | > 100 µM (inactive) | > 100 µM (inactive) | > 100 µM (inactive) | > 100 µM (inactive) | > 100 µM (inactive) | 33.4 µM (inactive) | 63.7 µM (inactive) | > 100 µM (inactive) | 34.5 µM (inactive) | > 100 µM | > 100 µM (inactive) | > 100 µM (inactive) | > 100 µM (inactive) | 97.7 µM (inactive) | > 100 µM (inactive)
NC(Cc1c2ccccc2cc2ccccc12)C(=O)O (stereo not given) | > 100 µM (inactive) | 67.3 µM (inactive) | > 100 µM (inactive) | > 100 µM (inactive) | > 100 µM (inactive) | 94.8 µM (inactive) | > 100 µM (inactive) | 70.5 µM (inactive) | > 100 µM (inactive) | 76.9 µM (inactive) | 61.1 µM (inactive) | > 100 µM (inactive) | > 100 µM (inactive) | 47.4 µM (inactive) | 68.1 µM | 54.3 µM (inactive) | > 100 µM (inactive) | > 100 µM (inactive) | > 100 µM (inactive) | > 100 µM (inactive)
Cc1ccc(S(=O)(=O)N/N=C2/CCCOC2)cc1 | > 100 µM (inactive) | > 100 µM (inactive) | > 100 µM (inactive) | > 100 µM (inactive) | > 100 µM (inactive) | > 100 µM (inactive) | > 100 µM (inactive) | > 100 µM (inactive) | > 100 µM (inactive) | > 100 µM (inactive) | > 100 µM (inactive) | > 100 µM (inactive) | > 100 µM (inactive) | > 100 µM (inactive) | > 100 µM | > 100 µM (inactive) | > 100 µM (inactive) | > 100 µM (inactive) | > 100 µM (inactive) | > 100 µM (inactive)
O=C(c1ccccc1)c1sc2c(=O)c(C(=O)c3ccccc3)c(C(=O)c3ccccc3)sc2c(=O)c1C(=O)c1ccccc1 | 46.7 µM (inactive) | 51.1 µM (inactive) | 33.3 µM (inactive) | > 100 µM (inactive) | 42.3 µM (inactive) | 23.8 µM (inactive) | 50.6 µM (inactive) | 21.8 µM (inactive) | > 100 µM (inactive) | > 100 µM (inactive) | 37.2 µM (inactive) | 15.9 µM (inactive) | 27.1 µM (inactive) | 32 µM (inactive) | 35 µM | 54.8 µM (inactive) | 23.6 µM (inactive) | 25.1 µM (inactive) | > 100 µM (inactive) | 23.8 µM (inactive)
Cc1cn2c(/C=C3/C(=O)Nc4ccccc43)c(-c3ccccc3)nc2s1 | 31 µM (inactive) | 38.5 µM (inactive) | > 100 µM (inactive) | 71.3 µM (inactive) | 48.4 µM (inactive) | > 100 µM (inactive) | 28.1 µM (inactive) | 64.4 µM (inactive) | 18.7 µM (inactive) | 67.6 µM (inactive) | 36.5 µM (inactive) | > 100 µM (inactive) | > 100 µM (inactive) | 71.1 µM (inactive) | > 100 µM | 93.1 µM (inactive) | 19.2 µM (inactive) | 91 µM (inactive) | 57.3 µM (inactive) | 27 µM (inactive)
CCOC(=O)[C@@H]1ON2OC(OC3CCCC3(c3ccccc3)c3ccccc3)C(OC(C)=O)[C@H]3OC(=O)[C@@H]1C32 (stereo not given in full) | > 100 µM (inactive) | > 100 µM (inactive) | 62.1 µM (inactive) | 89.7 µM (inactive) | > 100 µM (inactive) | 29.2 µM (inactive) | 68.7 µM (inactive) | > 100 µM (inactive) | > 100 µM (inactive) | > 100 µM (inactive) | > 100 µM (inactive) | 97.9 µM (inactive) | 51.1 µM (inactive) | 42.9 µM (inactive) | > 100 µM | > 100 µM (inactive) | 56.6 µM (inactive) | 22.1 µM (inactive) | > 100 µM (inactive) | 27.4 µM (inactive)
